Source: patent publication US20110318393A1, “Substituted Pyrazole Compounds” (MIIKANA THERAPEUTICS, INC., priority 2008, published 2011)

Tests used:
[1] = target: T1, N-terminal His-tagged human Src (Homo sapiens, UniProt P12931); test: Src kinase inhibition assay (33P-ATP filter assay); assay type: biochemical; conditions: 40 minutes, room temperature; less than or equal to 100 nM
T1 construct: His (N); purchased Upstate USA Inc, Charlottesville, Va
Description: Compounds were assayed for Src kinase inhibitory activity using N-terminal His-tagged human Src (Upstate USA Inc, 706 Forest Street, Charlottesville, Va.). Serial dilutions of compound were assayed in a final reaction volume of 25 μL by incubating a solution of the above Src kinase (5-10 mU), 8 mM MOPS (3-(N-morpholino)propanesulfonic acid) pH 7.0, 0.2 mM EDTA (ethylenediamine tetracetic acid), 250 μM amino acid sequence KVEKIGEGTYGVVYK (Upstate USA Inc, 706 Forest Street, Charlottesville, Va.), and 10 mM magnesium acetate and [γ-^33P-ATP] (specific activity of about 500 cpm/pmol, concentration as required). The reaction was initiated by the addition of the magnesium acetate and [γ-^33P-ATP] mixture. After incubation for 40 minutes at room temperature, the reaction was stopped by the addition of 5 μL of a 3% phosphoric acid solution. A 10 μL aliquote of the reaction was then spotted onto a P30 filtermat (PerkinElmer, Wellesley, Mass.) and washed three times for five minutes in 75 mM phosphoric acid and once in methanol prior to drying and scintillation counting. Inhibition of Src activity was determined by comparison to assays that contained no inhibitor.

HCT-116 cell growth = test: Whole cell cytotoxicity assay: Sulforhodamine B; assay type: cell-based; conditions: Homo sapiens, HCT116, 96 hours, SRB staining, less than or equal to 100 nM
Description: Human tumor-derived cell lines, HCT116 or MCF7 (ATCC) were plated in a 96 well plate in DMEM containing 10% fetal bovine serum and 2 mM L-glutamine at a density of 500 HCT116 cells or 1,000 MCF7 cells per well and incubated at 37° C., 5% CO2, for 24 hours prior to the addition of experimental compounds. Compounds were added using the dilution series indicated to duplicate plates and the cells were incubated in media plus compound for 96 hours. An additional plate was fixed in 10% TCA at the time of the addition of compound to provide a measurement of the cell population at time zero, the time of drug addition. […] The absorbance was read at 570 nm. Percentage growth was calculated using the absorbance readings from the time zero plate (Tz) and the dilution series plate […] which included a column of cells grown in media without compound as a control (C) using the formulas: […]
Three dose response parameters were calculated for each experimental agent. […] The drug concentration resulting in total growth inhibition (TGI) was calculated from Ti=Tz. […] Values are calculated for each of these three parameters if the level of activity was reached; however, if the effect was not reached or was exceeded, the value for that parameter is expressed as greater or less than the maximum or minimum concentration tested.

T1 sequence (P12931 whole entry): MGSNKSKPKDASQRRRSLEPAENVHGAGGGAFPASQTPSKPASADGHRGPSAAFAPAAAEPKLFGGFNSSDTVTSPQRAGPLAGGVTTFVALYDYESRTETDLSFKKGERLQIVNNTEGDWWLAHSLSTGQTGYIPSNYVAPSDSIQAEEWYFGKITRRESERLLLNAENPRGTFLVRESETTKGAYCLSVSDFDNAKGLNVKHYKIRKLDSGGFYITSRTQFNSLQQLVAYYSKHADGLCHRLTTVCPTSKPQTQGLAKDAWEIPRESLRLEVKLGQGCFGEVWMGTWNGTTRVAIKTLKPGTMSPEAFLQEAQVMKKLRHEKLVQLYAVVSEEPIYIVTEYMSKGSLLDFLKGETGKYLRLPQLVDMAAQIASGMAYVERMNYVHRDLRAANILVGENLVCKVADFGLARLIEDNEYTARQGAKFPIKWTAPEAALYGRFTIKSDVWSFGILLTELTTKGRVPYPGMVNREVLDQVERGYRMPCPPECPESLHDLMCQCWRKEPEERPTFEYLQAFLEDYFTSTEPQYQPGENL

Row | Compound | IC50 [1] | IC50 (HCT-116 cell growth)
1 | Cc1cc(Nc2cc(N3CCC(N4CCCCC4)CC3)nc(/C=C/c3ccccc3)n2)n[nH]1 [Compound 5, (E)-6-(1,4′-bipiperidin-1′-yl)-N-(5-methyl-1H-pyrazol-3-yl)-2-styrylpyrimidin-4-amine] | ≤ 100 nM | ≤ 100 nM
2 | Cc1cc(Nc2cc(N3CCN(c4ccncc4)CC3)nc(/C=C/c3ccccc3)n2)n[nH]1 [Compound 22, (E)-N-(5-methyl-1H-pyrazol-3-yl)-6-(4-(pyridin-4-yl)piperazin-1-yl)-2-styrylpyrimidin-4-amine] | ≤ 100 nM | ≤ 100 nM
